{"source": "patent US12268674B2", "about": "“Mi-2β inhibitor as an immunotherapy agent” (BioVentures, LLC, priority 2021, dated 2025)", "experiment_in_all_cases": "ATPase profile (ATP acyl phosphate probe)", "format_in_all_cases": "binding", "key": {"[1]": {"molecular_target": "T1, (Homo sapiens, UniProt Q9HCK8)", "T1 construct": "to get the native cell lysate; host or cells: A375 cell lysate", "conditions": "CIID8, SEQ ID NO: 57, ATP BS"}, "BAT1, DDX39": {"test_system": "BAT1, DDX39", "conditions": "BAT1, DDX39, SEQ ID NO: 50, ATP BS"}, "RUVBL1": {"molecular_target": "T2, RUVBL1 (Homo sapiens, UniProt Q9Y265)", "T2 construct": "to get the native cell lysate; endogenous in cells; host or cells: A375 cell lysate", "conditions": "RUVBL1, SEQ ID NO: 188, ATP BS"}, "ABCD4": {"molecular_target": "T3, ABCD4 (Homo sapiens, UniProt O14678)", "T3 construct": "to get the native cell lysate; host or cells: A375 cell lysate", "conditions": "ABCD4, SEQ ID NO: 14, ATP BS"}, "NUDT7": {"molecular_target": "T4, NUDT7 (Homo sapiens, UniProt P0C024)", "T4 construct": "to get the native cell lysate; endogenous in cells; host or cells: A375", "conditions": "NUDT7, SEQ ID NO: 147, ATP BS"}, "PSMC2": {"molecular_target": "PSMC2 (Homo sapiens, UniProt P35998)", "conditions": "PSMC2, SEQ ID NO: 174, ATP BS"}, "ATP5B": {"molecular_target": "T5, ATP5B (Homo sapiens, UniProt P06576)", "T5 construct": "to get the native cell lysate; host or cells: A375 cell lysate", "conditions": "SEQ ID NO: 48, ATP BS"}, "RBKS": {"molecular_target": "T6, RBKS (Homo sapiens, UniProt Q9H477)", "T6 construct": "to get the native cell lysate; endogenous in cells; host or cells: A375 cell lysate", "conditions": "SEQ ID NO: 182, ATP BS"}, "HSPA8": {"molecular_target": "T7, HSPA8 (Homo sapiens, UniProt P11142)", "T7 construct": "to get the native cell lysate; endogenous in cells; host or cells: A375", "T7 sequence (P11142 whole entry)": "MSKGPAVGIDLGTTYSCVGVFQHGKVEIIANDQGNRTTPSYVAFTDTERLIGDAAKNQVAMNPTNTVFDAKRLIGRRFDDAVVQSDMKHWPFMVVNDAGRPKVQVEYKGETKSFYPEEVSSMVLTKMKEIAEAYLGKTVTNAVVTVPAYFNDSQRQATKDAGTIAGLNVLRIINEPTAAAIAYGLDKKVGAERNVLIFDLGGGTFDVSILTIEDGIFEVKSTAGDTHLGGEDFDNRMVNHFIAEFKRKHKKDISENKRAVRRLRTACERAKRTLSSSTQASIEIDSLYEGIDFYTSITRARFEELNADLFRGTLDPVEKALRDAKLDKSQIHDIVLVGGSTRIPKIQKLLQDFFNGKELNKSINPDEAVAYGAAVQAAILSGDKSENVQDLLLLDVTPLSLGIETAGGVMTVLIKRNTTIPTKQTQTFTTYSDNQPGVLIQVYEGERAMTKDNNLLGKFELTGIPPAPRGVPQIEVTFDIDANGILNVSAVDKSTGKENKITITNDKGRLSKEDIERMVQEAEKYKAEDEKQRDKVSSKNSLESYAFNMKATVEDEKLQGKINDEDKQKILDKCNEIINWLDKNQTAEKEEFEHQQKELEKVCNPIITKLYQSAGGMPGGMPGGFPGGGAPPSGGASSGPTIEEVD"}, "ABCD3": {"molecular_target": "T8, ABCD3 (Homo sapiens, UniProt P28288)", "T8 construct": "to get the native cell lysate; host or cells: A375 cell lysate", "conditions": "ABCD3, SEQ ID NO: 13, ATP BS"}, "SKIV2L": {"molecular_target": "T9, SKIV2L (Homo sapiens, UniProt Q15477)", "T9 construct": "to get the native cell lysate; endogenous in cells; host or cells: A375 cell lysate", "conditions": "SEQ ID NO: 191, ATP BS"}, "MYO1E": {"molecular_target": "T10, MYO1E (Homo sapiens, UniProt Q12965)", "T10 construct": "to get the native cell lysate; endogenous in cells; host or cells: A375", "conditions": "SEQ ID NO: 128, ATP BS"}, "PMS2": {"molecular_target": "T11, PMS2 (Homo sapiens, UniProt P54278)", "T11 construct": "to get the native cell lysate; endogenous in cells; host or cells: A375 cell lysate", "conditions": "PMS2, SEQ ID NO: 162, ATP BS"}, "ABCF3": {"molecular_target": "T12, ABCF3 (Homo sapiens, UniProt Q9NUQ8)", "T12 construct": "to get the native cell lysate; host or cells: A375 cell lysate", "conditions": "ABCF3, SEQ ID NO: 19, ATP BS"}, "AHCY": {"molecular_target": "T13, AHCY (Homo sapiens, UniProt P23526)", "T13 construct": "to get the native cell lysate; host or cells: A375 cell lysate", "conditions": "SEQ ID NO: 30, ATP BS"}, "ME2": {"molecular_target": "T14, ME2 (Homo sapiens, UniProt P23368)", "T14 construct": "to get the native cell lysate; endogenous in cells; host or cells: A375", "T14 sequence (P23368 19-584)": "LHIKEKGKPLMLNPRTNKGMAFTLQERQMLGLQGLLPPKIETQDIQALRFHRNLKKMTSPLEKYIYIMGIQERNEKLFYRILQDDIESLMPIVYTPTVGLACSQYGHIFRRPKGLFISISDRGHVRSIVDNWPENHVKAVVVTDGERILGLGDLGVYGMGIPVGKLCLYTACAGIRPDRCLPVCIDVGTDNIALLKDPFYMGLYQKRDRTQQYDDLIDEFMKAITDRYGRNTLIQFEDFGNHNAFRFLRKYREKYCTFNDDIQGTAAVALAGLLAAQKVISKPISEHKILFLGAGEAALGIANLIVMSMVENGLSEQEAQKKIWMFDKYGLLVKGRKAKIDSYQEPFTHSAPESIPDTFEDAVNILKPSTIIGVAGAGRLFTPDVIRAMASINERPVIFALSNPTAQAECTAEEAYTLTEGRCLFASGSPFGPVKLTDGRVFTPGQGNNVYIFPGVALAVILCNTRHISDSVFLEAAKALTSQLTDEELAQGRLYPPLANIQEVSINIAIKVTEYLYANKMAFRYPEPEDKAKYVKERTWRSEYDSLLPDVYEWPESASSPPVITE"}, "ALDH16A1": {"molecular_target": "T15, ALDH16A1 (Homo sapiens, UniProt Q8IZ83)", "T15 construct": "to get the native cell lysate; host or cells: A375 cell lysate", "conditions": "ALDH16A1, SEQ ID NO: 38, ATP BS"}, "UBA1": {"molecular_target": "UBA1 (Homo sapiens, UniProt P22314)", "conditions": "UBA1, SEQ ID NO: 217, ATP BS"}, "NTPCR": {"molecular_target": "T16, NTPCR (Homo sapiens, UniProt Q9BSD7)", "T16 construct": "to get the native cell lysate; endogenous in cells; host or cells: A375", "conditions": "SEQ ID NO: 141, ATP BS"}, "COASY": {"molecular_target": "T17, COASY (Homo sapiens, UniProt Q13057)", "T17 construct": "endogenous in cells; host or cells: A375 cell lysate", "T17 sequence (Q13057 whole entry)": "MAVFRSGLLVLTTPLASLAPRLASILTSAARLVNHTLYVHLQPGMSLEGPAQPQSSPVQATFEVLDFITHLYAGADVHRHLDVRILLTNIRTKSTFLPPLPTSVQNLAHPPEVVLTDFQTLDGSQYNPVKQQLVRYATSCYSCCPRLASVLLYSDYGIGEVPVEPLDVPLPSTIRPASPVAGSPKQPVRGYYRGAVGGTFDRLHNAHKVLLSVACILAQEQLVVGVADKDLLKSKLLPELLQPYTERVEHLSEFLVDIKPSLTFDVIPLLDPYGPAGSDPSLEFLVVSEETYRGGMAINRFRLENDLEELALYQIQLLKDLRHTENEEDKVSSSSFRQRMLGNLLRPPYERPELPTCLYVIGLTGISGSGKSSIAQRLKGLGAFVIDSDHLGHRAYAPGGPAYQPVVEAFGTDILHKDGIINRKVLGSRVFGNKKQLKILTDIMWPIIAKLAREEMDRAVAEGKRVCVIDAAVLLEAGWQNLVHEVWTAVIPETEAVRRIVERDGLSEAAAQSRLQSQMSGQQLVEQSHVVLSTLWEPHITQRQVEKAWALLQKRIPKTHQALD"}, "VCP": {"molecular_target": "T18, VCP (Homo sapiens, UniProt P55072)", "T18 construct": "to get the native cell lysate; endogenous in cells; host or cells: A375 cell lysate", "T18 sequence (P55072 2-806 limits assumed)": "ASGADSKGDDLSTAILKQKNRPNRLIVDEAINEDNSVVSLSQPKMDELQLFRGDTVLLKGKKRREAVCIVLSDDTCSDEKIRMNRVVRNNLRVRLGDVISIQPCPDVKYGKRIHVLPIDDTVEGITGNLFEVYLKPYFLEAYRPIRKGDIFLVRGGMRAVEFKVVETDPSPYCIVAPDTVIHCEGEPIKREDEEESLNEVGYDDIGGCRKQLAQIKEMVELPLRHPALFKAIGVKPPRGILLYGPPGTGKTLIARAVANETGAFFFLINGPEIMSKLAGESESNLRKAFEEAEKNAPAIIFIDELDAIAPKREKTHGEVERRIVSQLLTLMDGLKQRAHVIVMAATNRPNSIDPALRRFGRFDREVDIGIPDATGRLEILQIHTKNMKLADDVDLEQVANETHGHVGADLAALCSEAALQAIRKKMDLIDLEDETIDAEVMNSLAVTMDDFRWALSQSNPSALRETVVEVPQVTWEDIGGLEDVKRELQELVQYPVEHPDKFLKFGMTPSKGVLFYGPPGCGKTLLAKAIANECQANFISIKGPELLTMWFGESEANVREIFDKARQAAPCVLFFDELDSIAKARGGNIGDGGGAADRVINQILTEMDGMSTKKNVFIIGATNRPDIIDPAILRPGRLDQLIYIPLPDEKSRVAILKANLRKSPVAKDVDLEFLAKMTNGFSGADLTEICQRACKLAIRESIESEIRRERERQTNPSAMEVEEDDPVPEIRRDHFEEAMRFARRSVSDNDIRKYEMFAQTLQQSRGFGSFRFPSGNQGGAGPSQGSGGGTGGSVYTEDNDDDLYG"}, "UBA5": {"molecular_target": "T19, UBA5 (Homo sapiens, UniProt Q9GZZ9)", "T19 construct": "to get the native cell lysate; endogenous in cells; host or cells: A375 cell lysate", "T19 sequence (Q9GZZ9 whole entry)": "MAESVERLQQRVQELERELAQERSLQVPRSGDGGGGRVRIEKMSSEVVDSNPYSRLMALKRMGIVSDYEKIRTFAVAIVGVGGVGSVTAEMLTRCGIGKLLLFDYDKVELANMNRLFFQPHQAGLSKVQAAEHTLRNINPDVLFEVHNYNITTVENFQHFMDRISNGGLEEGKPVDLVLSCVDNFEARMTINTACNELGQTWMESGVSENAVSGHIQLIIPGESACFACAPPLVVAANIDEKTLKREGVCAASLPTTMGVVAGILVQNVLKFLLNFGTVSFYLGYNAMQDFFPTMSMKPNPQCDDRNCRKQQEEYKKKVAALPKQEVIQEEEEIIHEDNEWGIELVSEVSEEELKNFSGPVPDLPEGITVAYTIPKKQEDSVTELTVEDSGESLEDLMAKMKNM", "conditions": "UBA5, SEQ ID NO: 221, ATP BS"}, "ASS1": {"molecular_target": "T20, ASS1 (Homo sapiens, UniProt P00966)", "T20 construct": "to get the native cell lysate; host or cells: A375 cell lysate", "T20 sequence (P00966 whole entry)": "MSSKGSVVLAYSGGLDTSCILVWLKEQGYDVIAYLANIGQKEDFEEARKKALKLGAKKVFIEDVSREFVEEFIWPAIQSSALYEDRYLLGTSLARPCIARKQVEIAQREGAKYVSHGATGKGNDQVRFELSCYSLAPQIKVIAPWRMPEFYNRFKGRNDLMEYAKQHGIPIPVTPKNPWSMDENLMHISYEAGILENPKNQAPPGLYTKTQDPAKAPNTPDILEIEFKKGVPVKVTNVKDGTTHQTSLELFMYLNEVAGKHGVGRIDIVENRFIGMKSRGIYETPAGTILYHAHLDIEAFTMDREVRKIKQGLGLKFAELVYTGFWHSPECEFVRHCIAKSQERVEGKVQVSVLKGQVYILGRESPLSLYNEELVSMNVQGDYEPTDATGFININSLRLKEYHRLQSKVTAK", "conditions": "ASS1, SEQ ID NO: 43, ATP BS"}, "PRPS1": {"molecular_target": "T21, PRPS1 (Homo sapiens, UniProt P60891)", "T21 construct": "endogenous in cells; host or cells: A375 cell lysate", "T21 sequence (P60891 2-318 limits assumed)": "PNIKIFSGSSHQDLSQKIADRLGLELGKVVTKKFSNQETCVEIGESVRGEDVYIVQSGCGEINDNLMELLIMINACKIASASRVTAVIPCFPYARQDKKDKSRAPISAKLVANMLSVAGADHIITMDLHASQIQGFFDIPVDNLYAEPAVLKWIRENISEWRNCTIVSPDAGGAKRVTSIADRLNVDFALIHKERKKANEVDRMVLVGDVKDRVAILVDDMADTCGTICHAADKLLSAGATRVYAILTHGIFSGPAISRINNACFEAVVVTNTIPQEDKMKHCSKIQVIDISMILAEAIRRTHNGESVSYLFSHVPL", "conditions": "PRPS1, SEQ ID NO: 171, ATP BS"}, "LIG1": {"molecular_target": "T22, LIG1 (Homo sapiens, UniProt P18858)", "T22 construct": "to get the native cell lysate; endogenous in cells; host or cells: A375", "conditions": "LIG1, SEQ ID NO: 114, ATP BS"}, "PAICS": {"molecular_target": "T23, PAICS (Homo sapiens, UniProt P22234)", "T23 construct": "to get the native cell lysate; endogenous in cells; host or cells: A375", "conditions": "SEQ ID NO: 151, ATP BS"}, "XRCC5": {"molecular_target": "T24, XRCC5 (Homo sapiens, UniProt P13010)", "T24 construct": "to get the native cell lysate; endogenous in cells; host or cells: A375 cell lysate", "conditions": "XRCC5, SEQ ID NO: 231, ATP BS"}, "PKM, PKM2": {"molecular_target": "T25, PKM, PKM2 (Homo sapiens, UniProt P14618)", "T25 construct": "to get the native cell lysate; endogenous in cells; host or cells: A375 cell lysate", "T25 sequence (P14618 whole entry)": "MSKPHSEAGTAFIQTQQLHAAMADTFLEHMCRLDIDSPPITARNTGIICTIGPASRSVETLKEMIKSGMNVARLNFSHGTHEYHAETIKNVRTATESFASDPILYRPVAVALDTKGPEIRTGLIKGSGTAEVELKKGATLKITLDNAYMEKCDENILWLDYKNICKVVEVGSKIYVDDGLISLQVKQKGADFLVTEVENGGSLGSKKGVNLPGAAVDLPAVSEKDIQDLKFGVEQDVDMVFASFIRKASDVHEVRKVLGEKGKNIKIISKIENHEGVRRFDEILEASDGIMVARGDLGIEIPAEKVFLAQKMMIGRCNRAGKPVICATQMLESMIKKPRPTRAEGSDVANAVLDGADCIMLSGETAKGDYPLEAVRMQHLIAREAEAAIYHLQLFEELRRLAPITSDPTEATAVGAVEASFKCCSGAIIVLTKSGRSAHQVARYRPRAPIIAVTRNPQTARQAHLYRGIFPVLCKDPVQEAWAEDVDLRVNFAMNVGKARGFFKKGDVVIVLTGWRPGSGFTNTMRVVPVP", "conditions": "PKM2, SEQ ID NO: 161, ATP BS"}, "HARS": {"molecular_target": "T26, HARS (Homo sapiens, UniProt P12081)", "T26 construct": "endogenous in cells; host or cells: A375 cell lysate", "T26 sequence (P12081 whole entry)": "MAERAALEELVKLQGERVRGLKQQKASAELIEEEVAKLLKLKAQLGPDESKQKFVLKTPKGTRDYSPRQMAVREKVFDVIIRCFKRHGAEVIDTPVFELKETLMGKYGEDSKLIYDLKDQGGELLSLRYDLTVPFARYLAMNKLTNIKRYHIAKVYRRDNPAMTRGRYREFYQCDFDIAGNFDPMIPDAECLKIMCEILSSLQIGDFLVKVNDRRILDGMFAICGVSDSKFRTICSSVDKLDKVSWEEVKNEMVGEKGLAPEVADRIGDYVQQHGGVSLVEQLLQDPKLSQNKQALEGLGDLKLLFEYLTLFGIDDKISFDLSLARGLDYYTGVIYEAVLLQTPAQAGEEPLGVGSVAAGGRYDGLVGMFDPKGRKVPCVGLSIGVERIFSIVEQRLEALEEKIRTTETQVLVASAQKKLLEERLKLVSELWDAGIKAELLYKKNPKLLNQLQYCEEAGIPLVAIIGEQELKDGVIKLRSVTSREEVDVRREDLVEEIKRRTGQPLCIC", "conditions": "SEQ ID NO: 89, ATP BS"}, "TK2": {"molecular_target": "T27, TK2 (Homo sapiens, UniProt O00142)", "T27 construct": "to get the native cell lysate; endogenous in cells; host or cells: A375 cell lysate", "T27 sequence (O00142 34-265)": "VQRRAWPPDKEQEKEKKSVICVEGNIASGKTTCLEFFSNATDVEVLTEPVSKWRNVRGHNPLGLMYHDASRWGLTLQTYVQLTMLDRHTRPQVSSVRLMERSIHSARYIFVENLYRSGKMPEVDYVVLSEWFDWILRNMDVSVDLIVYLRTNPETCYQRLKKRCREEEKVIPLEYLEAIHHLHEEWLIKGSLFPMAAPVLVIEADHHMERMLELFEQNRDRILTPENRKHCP", "conditions": "TK2, SEQ ID NO: 201, ATP BS"}}}
{"smiles": "Cn1c(=O)[nH]c2ccc(-c3cccc(C(=O)NC4CCn5ccnc5C4)c3)cc21", "note": "(stereo not drawn) [Z36-MP5, 3-(3-methyl-2-oxo-2,3-dihydro-1H-benzo[d]imidazol-5-yl)-N-(5,6,7,8-tetrahydroimidazo[1,2-a]pyridin-7-yl)benzamide]", "values": [{"measurement": "Inhibition (%) by 1 μM Z36-MP5", "setting": "[1]", "value": "−44.26", "unit": "%"}, {"measurement": "Inhibition (%) by 1 μM Z36-MP5", "setting": "BAT1, DDX39", "value": "−10.93", "unit": "%"}, {"measurement": "Inhibition (%) by 1 μM Z36-MP5", "setting": "RUVBL1", "value": "−15.57", "unit": "%"}, {"measurement": "Inhibition (%) by 1 μM Z36-MP5", "setting": "ABCD4", "value": 11.24, "unit": "%"}, {"measurement": "Inhibition (%) by 1 μM Z36-MP5", "setting": "NUDT7", "value": 19.75, "unit": "%"}, {"measurement": "Inhibition (%) by 1 μM Z36-MP5", "setting": "PSMC2", "value": "−6.44", "unit": "%"}, {"measurement": "Inhibition (%) by 1 μM Z36-MP5", "setting": "ATP5B", "value": "−14.96", "unit": "%"}, {"measurement": "Inhibition (%) by 1 μM Z36-MP5", "setting": "RBKS", "value": "−1.64", "unit": "%"}, {"measurement": "Inhibition (%) by 1 μM Z36-MP5", "setting": "HSPA8; HSPA8, SEQ ID NO: 106, ATP BS", "value": 3.27, "unit": "%"}, {"measurement": "Inhibition (%) by 1 μM Z36-MP5", "setting": "HSPA8; HSPA8, SEQ ID NO: 107, ATP BS", "value": 4.45, "unit": "%"}, {"measurement": "Inhibition (%) by 1 μM Z36-MP5", "setting": "ABCD3", "value": 3.07, "unit": "%"}, {"measurement": "Inhibition (%) by 1 μM Z36-MP5", "setting": "SKIV2L", "value": "−3.49", "unit": "%"}, {"measurement": "Inhibition (%) by 1 μM Z36-MP5", "setting": "MYO1E", "value": 4.66, "unit": "%"}, {"measurement": "Inhibition (%) by 1 μM Z36-MP5", "setting": "PMS2", "value": 3.36, "unit": "%"}, {"measurement": "Inhibition (%) by 1 μM Z36-MP5", "setting": "ABCF3", "value": 5.45, "unit": "%"}, {"measurement": "Inhibition (%) by 1 μM Z36-MP5", "setting": "AHCY", "value": "−10.85", "unit": "%"}, {"measurement": "Inhibition (%) by 1 μM Z36-MP5", "setting": "ME2; ME2, SEQ ID NO: 122, ATP BS", "value": "−6.47", "unit": "%"}, {"measurement": "Inhibition (%) by 1 μM Z36-MP5", "setting": "ME2; ME2, SEQ ID NO: 123, ATP BS", "value": "−16.71", "unit": "%"}, {"measurement": "Inhibition (%) by 1 μM Z36-MP5", "setting": "ALDH16A1", "value": "−1.13", "unit": "%"}, {"measurement": "Inhibition (%) by 1 μM Z36-MP5", "setting": "UBA1", "value": "−4.55", "unit": "%"}, {"measurement": "Inhibition (%) by 1 μM Z36-MP5", "setting": "NTPCR", "value": "−14.99", "unit": "%"}, {"measurement": "Inhibition (%) by 1 μM Z36-MP5", "setting": "COASY; SEQ ID NO: 62, ATP BS", "value": "−3.39", "unit": "%"}, {"measurement": "Inhibition (%) by 1 μM Z36-MP5", "setting": "COASY; SEQ ID NO: 63, ATP BS", "value": 23.55, "unit": "%"}, {"measurement": "Inhibition (%) by 1 μM Z36-MP5", "setting": "VCP; SEQ ID NO: 225, ATP BS", "value": "−8.02", "unit": "%"}, {"measurement": "Inhibition (%) by 1 μM Z36-MP5", "setting": "VCP; SEQ ID NO: 226, ATP BS", "value": "−2.36", "unit": "%"}, {"measurement": "Inhibition (%) by 1 μM Z36-MP5", "setting": "VCP; SEQ ID NO: 227, ATP BS", "value": "−7.20", "unit": "%"}, {"measurement": "Inhibition (%) by 1 μM Z36-MP5", "setting": "VCP; SEQ ID NO: 228, ATP BS", "value": 7.80, "unit": "%"}, {"measurement": "Inhibition (%) by 1 μM Z36-MP5", "setting": "UBA5", "value": "−12.85", "unit": "%"}, {"measurement": "Inhibition (%) by 1 μM Z36-MP5", "setting": "ASS1", "value": 0.53, "unit": "%"}, {"measurement": "Inhibition (%) by 1 μM Z36-MP5", "setting": "PRPS1", "value": "−22.26", "unit": "%"}, {"measurement": "Inhibition (%) by 1 μM Z36-MP5", "setting": "LIG1", "value": "−7.76", "unit": "%"}, {"measurement": "Inhibition (%) by 1 μM Z36-MP5", "setting": "PAICS", "value": 19.51, "unit": "%"}, {"measurement": "Inhibition (%) by 1 μM Z36-MP5", "setting": "XRCC5", "value": 2.24, "unit": "%"}, {"measurement": "Inhibition (%) by 1 μM Z36-MP5", "setting": "PKM, PKM2", "value": 28.24, "unit": "%"}, {"measurement": "Inhibition (%) by 1 μM Z36-MP5", "setting": "HARS", "value": 4.68, "unit": "%"}, {"measurement": "Inhibition (%) by 1 μM Z36-MP5", "setting": "TK2", "value": 14.43, "unit": "%"}]}
